Measured values reported in PubChem BioAssay (NCI).
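GI50 marks 50% less growth. Definition used: TGI = concentration required for complete inhibition of growth.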

Key:
Assay in all cases: growth of human tumour cells (NCI), 384-well format
[1] = test system: SN12C renal
[2] = test system: MALME-3M melanoma
[3] = test system: OVCAR-8 ovarian
[4] = test system: SNB-19 CNS
[5] = test system: RPMI-8226 leukemia
[6] = test system: NCI-H23 lung
[7] = test system: SK-MEL-5 melanoma
[8] = test system: HS 578T breast
[9] = test system: A498 renal
[10] = test system: SK-OV-3 ovarian
[11] = test system: SF-295 CNS
[12] = test system: SNB-75 CNS
[13] = test system: MDA-MB-435 melanoma
[14] = test system: T-47D breast
[15] = test system: CCRF-CEM leukemia
[16] = test system: OVCAR-5 ovarian
[17] = test system: TK-10 renal
[18] = test system: HL-60(TB) leukemia
[19] = test system: K-562 leukemia
[20] = test system: MDA-MB-468 breast
[21] = test system: HCC-2998 colon
[22] = test system: NCI-H460 NSCLC
[23] = test system: NCI-H322M lung
[24] = test system: ACHN renal
[25] = test system: SR leukemia
[26] = test system: U251 glioblastoma
[27] = test system: HOP-92 NSCLC
[28] = test system: NCI/ADR-RES ovarian
[29] = test system: MCF7 breast
[30] = test system: PC-3 prostate
[31] = test system: LOX IMVI melanoma
[32] = test system: KM12 colon
[33] = test system: HOP-62 NSCLC
[34] = test system: NCI-H226 lung
[35] = test system: COLO 205 colon
[36] = test system: UACC-62 melanoma
[37] = test system: DU-145 prostate
[38] = test system: IGROV1 ovarian
[39] = test system: SF-268 CNS
[40] = test system: MOLT-4 leukemia
[41] = test system: SW-620 colon
[42] = test system: SF-539 CNS
[43] = test system: HCT-15 colon
[44] = test system: CAKI-1 renal
[45] = test system: A549 NSCLC
[46] = test system: OVCAR-3 ovarian
[47] = test system: HT29 colon
[48] = test system: MDA-MB-231 breast
[49] = test system: RXF 393 renal
[50] = test system: M14 melanoma
[51] = test system: EKVX NSCLC
[52] = test system: SK-MEL-28 melanoma
[53] = test system: UO-31 renal
[54] = test system: UACC-257 melanoma
[55] = test system: 786-0 renal
[56] = test system: NCI-H522 lung
[57] = test system: OVCAR-4 ovarian

For `CN[C@@H](C)C(=O)N[C@H](C(=O)N1CCC[C@H]1C(=O)Nc1snnc1-c1ccccc1)C1CCCCC1`, the GI50 [1] was over 100 µM, the TGI [1] was over 100 µM and the GI50 [2] was 0.0294 µM. The TGI [2] was 0.392 µM, the GI50 [3] was 16.5 µM and the TGI [3] was 36.2 µM. The GI50 [4] was over 100 µM, the TGI [4] was over 100 µM and the GI50 [5] was 22.7 µM. The TGI [5] was 57.2 µM, the GI50 [6] was 14.2 µM and the TGI [6] was over 100 µM. The GI50 [7] was 0.845 µM, the TGI [7] was 18.1 µM and the GI50 [8] was 34.5 µM. The TGI [8] was over 100 µM, the GI50 [9] was 26.4 µM and the TGI [9] was 74.6 µM. It also gave a TGI [10] of 2.78 µM, a GI50 [11] of 64 µM and a TGI [11] of over 100 µM. The GI50 [12] was 38.7 µM, the TGI [12] was over 100 µM and the GI50 [13] was 31.2 µM. The TGI [13] was over 100 µM, the GI50 [14] was 45.5 µM and the TGI [14] was over 100 µM. The GI50 [15] was 10.9 µM, the TGI [15] was 32.2 µM and the GI50 [16] was 59.1 µM. For the same compound, the TGI [16] was over 100 µM, the GI50 [17] was 18.6 µM and the TGI [17] was 46.2 µM. For the same compound, the GI50 [18] was 0.412 µM, the TGI [18] was 15.5 µM and the GI50 [19] was 19.1 µM. The TGI [19] was 35.3 µM, the GI50 [20] was 6.93 µM and the TGI [20] was 26.9 µM. It also gave a GI50 [21] of 21.5 µM, a TGI [21] of 40.9 µM and a GI50 [22] of 38.7 µM. For the same compound, the TGI [22] was over 100 µM, the GI50 [23] was over 100 µM and the TGI [23] was over 100 µM. For the same compound, the GI50 [24] was 17.4 µM, the TGI [24] was 39.5 µM and the GI50 [25] was 13.5 µM. For the same compound, the TGI [25] was 33.6 µM, the GI50 [26] was 59.7 µM and the TGI [26] was over 100 µM. It also gave a GI50 [27] of 18.1 µM, a TGI [27] of 73.6 µM and a GI50 [28] of 5.89 µM. It also gave a TGI [28] of 45.2 µM, a GI50 [29] of 31.7 µM and a TGI [29] of over 100 µM. It also gave a GI50 [30] of 45.6 µM, a TGI [30] of over 100 µM and a GI50 [31] of 37.9 µM. It also gave a TGI [31] of over 100 µM, a GI50 [32] of 60.1 µM and a TGI [32] of over 100 µM. The GI50 [33] was 11.2 µM, the TGI [33] was 33.2 µM and the GI50 [34] was 70.7 µM. It also gave a TGI [34] of over 100 µM, a GI50 [35] of 34.5 µM and a TGI [35] of over 100 µM. It also gave a GI50 [36] of 30.1 µM, a TGI [36] of 91.5 µM and a GI50 [37] of 49.9 µM. The TGI [37] was over 100 µM, the GI50 [38] was 64.5 µM and the TGI [38] was over 100 µM. For the same compound, the GI50 [39] was over 100 µM, the TGI [39] was over 100 µM and the GI50 [40] was 17.8 µM. The TGI [40] was 35.6 µM, the GI50 [41] was over 100 µM and the TGI [41] was over 100 µM. The GI50 [42] was 40.1 µM, the TGI [42] was over 100 µM and the GI50 [43] was 80.7 µM. It also gave a TGI [43] of over 100 µM, a GI50 [44] of 52.1 µM and a TGI [44] of over 100 µM. The GI50 [45] was over 100 µM, the TGI [45] was over 100 µM and the GI50 [46] was 26.2 µM. The TGI [46] was over 100 µM, the GI50 [47] was 17.3 µM and the TGI [47] was 35.7 µM. For the same compound, the GI50 [48] was 0.0979 µM, the TGI [48] was 2.51 µM and the GI50 [49] was 0.444 µM. The TGI [49] was 23.8 µM, the GI50 [50] was 28.2 µM and the TGI [50] was 72.7 µM. It also gave a GI50 [51] of 97.3 µM, a TGI [51] of over 100 µM and a GI50 [52] of 22.7 µM. For the same compound, the TGI [52] was 64.4 µM, the GI50 [53] was 8.13 µM and the TGI [53] was over 100 µM. The GI50 [54] was 16.6 µM, the TGI [54] was 32.5 µM and the GI50 [55] was 31.1 µM. It also gave a TGI [55] of over 100 µM, a GI50 [56] of 2.44 µM and a TGI [56] of 11.9 µM. For the same compound, the GI50 [57] was 0.0142 µM and the TGI [57] was 0.046 µM.
